In US20100099561A1, “HETEROBICYCLIC ALKYLTHIO-BRIDGED ISOXAZOLINES” (E.I. DU PONT DE NEMOURS AND COMPANY, priority 2008, published 2010):

Key:
Type in all cases: in vivo
[1] = system: downy bromegrass (Bromus tectorum); experiment: Test B preemergence, downy bromegrass; details: scale 0 to 100
Excerpt: (§1) Seeds of plant species selected from blackgrass (Alopecurus myosuroides), downy bromegrass (Bromus tectorum), green foxtail (Setaria viridis), Italian ryegrass (Lolium multiflorum), wheat (Triticum aestivum), wild oat (Avena fatua), catchweed bedstraw (Galium aparine), bermudagrass (Cynodon dactylon), Surinam grass (Brachiaria decumbens), cocklebur (Xanthium strumarium), corn (Zea mays), large crabgrass (Digitaria sanguinalis), woolly cupgrass (Eriochloa villosa), giant foxtail (Setaria faberii), goosegrass (Eleusine indica), johnsongrass (Sorghum halepense), kochia (Kochia scoparia), lambsquarters (Chenopodium album), morningglory (Ipomoea coccinea), nightshade (eastern black nightshade, Solanum ptycanthum), yellow nutsedge (Cyperus esculentus), pigweed (Amaranthus retroflexus), ragweed (common ragweed, Ambrosia elatior), soybean (Glycine max), sunflower (common oilseed sunflower, Helianthus annuus), Russian thistle (Salsola kali), and velvetleaf (Abutilon theophrasti) were planted into a blend of loam soil and sand and treated preemergence with test compounds formulated in a non-phytotoxic solvent mixture which included a surfactant. Treated plants and controls were maintained in a greenhouse for 13 to 15 days, after which time all species were compared to controls and visually evaluated. Plant response ratings, summarized in Table B, are based on a scale of 0 to 100 where 0 is no effect and 100 is complete control. A dash (-) response means no test result.

[2] = system: velvetleaf (Abutilon theophrasti); experiment: Test A postemergence, velvetleaf; details: 0 to 100 scale (0 no effect, 100 complete control)
In short: (§2)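 Scores reflect visual plant injury on a 0 (no effect) to 100 (complete control) scale, assessed about ten days after application in the greenhouse. Compounds were delivered in a non-phytotoxic solvent blend with surfactant, either preemergence to soil or postemergence at one- to two-leaf stage.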

corn (Zea mays) [3] = experiment: Test B preemergence, corn; details: scale 0 to 100
Excerpt: as §1

[4] = system: barnyardgrass (Echinochloa crus-galli); experiment: Test A postemergence, barnyardgrass; details: 0 to 100 scale (0 no effect, 100 complete control)
In short: as §2

[5] = system: wheat (Triticum aestivum); experiment: Test A postemergence, wheat; details: 0 to 100 scale (0 no effect, 100 complete control)
In short: as §2

[6] = system: pigweed (Amaranthus retroflexus); experiment: Test A postemergence, pigweed; details: 0 to 100 scale (0 no effect, 100 complete control)
In short: as §2

[7] = system: morningglory (Ipomoea coccinea); experiment: Test B preemergence, morningglory; details: scale 0 to 100
Excerpt: as §1

corn (Zea mays) [8] = experiment: Test A preemergence, corn; details: 0 to 100 scale (0 no effect, 100 complete control)
In short: as §2

rice (Oryza sativa) = experiment: Test B flooded paddy test, rice; details: Flood, scale 0 to 100
In short: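 Paddy-water application to 2-leaf plants in pots held under 3 cm of flooding; response is a 0–100 visual control rating against controls after 13 to 15 days, and a dash marks a missing result.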

[9] = system: nightshade (eastern black nightshade, Solanum ptycanthum); experiment: Test B preemergence, nightshade; details: scale 0 to 100
Excerpt: as §1

soybean (Glycine max) = experiment: Test B preemergence, soybean; details: Preemergence, scale 0 to 100
In short: (§3)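 Planting into loam soil blended with sand preceded preemergence treatment. After 13 to 15 days under greenhouse conditions, response was judged by eye against controls, 0 meaning no effect and 100 complete control.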

[10] = system: wheat (Triticum aestivum); experiment: Test A preemergence, wheat; details: 0 to 100 scale (0 no effect, 100 complete control)
In short: as §2

[11] = system: blackgrass (Alopecurus myosuroides); experiment: Test B preemergence, blackgrass; details: scale 0 to 100
Excerpt: as §1

[12] = system: large crabgrass (Digitaria sanguinalis); experiment: Test A postemergence, large crabgrass; details: 0 to 100 scale (0 no effect, 100 complete control)
In short: as §2

[13] = system: large crabgrass (Digitaria sanguinalis); experiment: Test B preemergence, large crabgrass; details: scale 0 to 100
Excerpt: as §1

[14] = system: velvetleaf (Abutilon theophrasti); experiment: Test B preemergence, velvetleaf; details: Preemergence, scale 0 to 100
In short: as §3

[15] = system: giant foxtail (Setaria faberi); experiment: Test A postemergence, giant foxtail; details: 0 to 100 scale (0 no effect, 100 complete control)
In short: as §2

[16] = system: lambsquarters (Chenopodium album); experiment: Test B preemergence, lambsquarters; details: scale 0 to 100
Excerpt: as §1

[17] = system: yellow nutsedge (Cyperus esculentus); experiment: Test B preemergence, yellow nutsedge; details: scale 0 to 100
Excerpt: as §1

[18] = system: large crabgrass (Digitaria sanguinalis); experiment: Test A preemergence, large crabgrass; details: 0 to 100 scale (0 no effect, 100 complete control)
In short: as §2

CC1(C)CC(S(=O)(=O)Cc2c(C(F)(F)F)nc3ccsn3c2=O)=NO1 [Compound 16]
Plant response rating, Bromegrass, Downy ([1]; 16 g ai/ha): 0 | Plant response rating, Bromegrass, Downy ([1]; 31 g ai/ha): 0 | Plant response rating, Bromegrass, Downy ([1]; 62 g ai/ha): 0 | Plant response rating, Bromegrass, Downy ([1]; 125 g ai/ha): 30 | Plant response rating, Velvetleaf ([2]; 125 g ai/ha): 30 | Plant response rating, Velvetleaf ([2]; 500 g ai/ha): 60 | Plant response rating, Corn (corn (Zea mays) [3]; 16 g ai/ha): 0 | Plant response rating, Corn (corn (Zea mays) [3]; 31 g ai/ha): 0 | Plant response rating, Corn (corn (Zea mays) [3]; 62 g ai/ha): 0 | Plant response rating, Corn (corn (Zea mays) [3]; 125 g ai/ha): 0 | Plant response rating, Barnyardgrass ([4]; 125 g ai/ha): 80 | Plant response rating, Barnyardgrass ([4]; 500 g ai/ha): 90 | Plant response rating, Wheat ([5]; 125 g ai/ha): 0 | Plant response rating, Wheat ([5]; 500 g ai/ha): 50 | Plant response rating, Pigweed ([6]; 125 g ai/ha): 10 | Plant response rating, Pigweed ([6]; 500 g ai/ha): 50 | Plant response rating, Morningglory ([7]; 16 g ai/ha): 0 | Plant response rating, Morningglory ([7]; 31 g ai/ha): 0 | Plant response rating, Morningglory ([7]; 62 g ai/ha): 0 | Plant response rating, Morningglory ([7]; 125 g ai/ha): 0 | Plant response rating, Corn (corn (Zea mays) [8]; 125 g ai/ha): 0 | Plant response rating, Corn (corn (Zea mays) [8]; 500 g ai/ha): 0 | Plant response rating, Rice (rice (Oryza sativa); 62 g ai/ha): 0 | Plant response rating, Rice (rice (Oryza sativa); 250 g ai/ha): 0 | Plant response rating, Nightshade ([9]; 16 g ai/ha): 0 | Plant response rating, Nightshade ([9]; 31 g ai/ha): 0 | Plant response rating, Nightshade ([9]; 62 g ai/ha): 85 | Plant response rating, Nightshade ([9]; 125 g ai/ha): 95 | Plant response rating, Soybean (soybean (Glycine max); 16 g ai/ha): 0 | Plant response rating, Soybean (soybean (Glycine max); 31 g ai/ha): 0 | Plant response rating, Soybean (soybean (Glycine max); 62 g ai/ha): 0 | Plant response rating, Soybean (soybean (Glycine max); 125 g ai/ha): 0 | Plant response rating, Wheat ([10]; 125 g ai/ha): 0 | Plant response rating, Wheat ([10]; 500 g ai/ha): 0 | Plant response rating, Blackgrass ([11]; 16 g ai/ha): 10 | Plant response rating, Blackgrass ([11]; 31 g ai/ha): 85 | Plant response rating, Blackgrass ([11]; 62 g ai/ha): 90 | Plant response rating, Blackgrass ([11]; 125 g ai/ha): 100 | Plant response rating, Crabgrass, Large ([12]; 125 g ai/ha): 80 | Plant response rating, Crabgrass, Large ([12]; 500 g ai/ha): 90 | Plant response rating, Crabgrass, Large ([13]; 16 g ai/ha): 70 | Plant response rating, Crabgrass, Large ([13]; 31 g ai/ha): 95 | Plant response rating, Crabgrass, Large ([13]; 62 g ai/ha): 100 | Plant response rating, Crabgrass, Large ([13]; 125 g ai/ha): 100 | Plant response rating, Velvetleaf ([14]; 16 g ai/ha): 0 | Plant response rating, Velvetleaf ([14]; 31 g ai/ha): 0 | Plant response rating, Velvetleaf ([14]; 62 g ai/ha): 0 | Plant response rating, Velvetleaf ([14]; 125 g ai/ha): 0 | Plant response rating, Foxtail, Giant ([15]; 125 g ai/ha): 80 | Plant response rating, Foxtail, Giant ([15]; 500 g ai/ha): 90 | Plant response rating, Lambsquarters ([16]; 16 g ai/ha): 0 | Plant response rating, Lambsquarters ([16]; 31 g ai/ha): 0 | Plant response rating, Lambsquarters ([16]; 62 g ai/ha): 0 | Plant response rating, Lambsquarters ([16]; 125 g ai/ha): 98 | Plant response rating, Nutsedge, Yellow ([17]; 16 g ai/ha): 0 | Plant response rating, Nutsedge, Yellow ([17]; 31 g ai/ha): 0 | Plant response rating, Nutsedge, Yellow ([17]; 62 g ai/ha): 0 | Plant response rating, Nutsedge, Yellow ([17]; 125 g ai/ha): 0 | Plant response rating, Crabgrass, Large ([18]; 125 g ai/ha): 90 | Plant response rating, Crabgrass, Large ([18]; 500 g ai/ha): 90
